In patent US8691764B2, “Inhibitors of NF-κB activity” (The Research Foundation for the State University of New York, priority 2007, dated 2014):
Where no end group is shown, it is not given here.

Legend:
NF-κB [1] = molecular target: T1, NF-κB (Homo sapiens, UniProt P19838+Q04206); assay: NF-κB activity ELISA (TransBinding NF-κB assay kit), BxPC-3 cells; assay type: cell-based; set-up: endogenous in cells; host or cells: BxPC-3; conditions: for NF-κB activity with peptides of annexin 1: BxPC-3 cells, 30 μM, 3 h
T1 sequence (Q04206 whole entry): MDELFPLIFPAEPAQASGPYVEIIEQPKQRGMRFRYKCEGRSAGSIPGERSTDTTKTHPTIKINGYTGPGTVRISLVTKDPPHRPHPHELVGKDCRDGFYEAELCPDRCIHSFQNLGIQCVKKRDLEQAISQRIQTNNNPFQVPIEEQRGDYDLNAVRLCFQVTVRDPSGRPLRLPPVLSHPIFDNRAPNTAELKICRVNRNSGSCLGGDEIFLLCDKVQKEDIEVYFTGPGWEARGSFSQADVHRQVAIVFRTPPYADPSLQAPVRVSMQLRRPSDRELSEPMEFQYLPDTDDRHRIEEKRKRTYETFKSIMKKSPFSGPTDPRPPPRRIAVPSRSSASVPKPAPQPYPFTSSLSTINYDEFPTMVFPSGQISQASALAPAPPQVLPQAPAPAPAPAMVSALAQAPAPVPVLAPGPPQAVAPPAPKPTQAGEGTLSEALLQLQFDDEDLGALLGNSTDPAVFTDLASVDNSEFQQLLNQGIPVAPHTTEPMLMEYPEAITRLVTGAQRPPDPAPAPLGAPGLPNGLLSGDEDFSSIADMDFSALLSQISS
T1 sequence (P19838 1-433 limits assumed): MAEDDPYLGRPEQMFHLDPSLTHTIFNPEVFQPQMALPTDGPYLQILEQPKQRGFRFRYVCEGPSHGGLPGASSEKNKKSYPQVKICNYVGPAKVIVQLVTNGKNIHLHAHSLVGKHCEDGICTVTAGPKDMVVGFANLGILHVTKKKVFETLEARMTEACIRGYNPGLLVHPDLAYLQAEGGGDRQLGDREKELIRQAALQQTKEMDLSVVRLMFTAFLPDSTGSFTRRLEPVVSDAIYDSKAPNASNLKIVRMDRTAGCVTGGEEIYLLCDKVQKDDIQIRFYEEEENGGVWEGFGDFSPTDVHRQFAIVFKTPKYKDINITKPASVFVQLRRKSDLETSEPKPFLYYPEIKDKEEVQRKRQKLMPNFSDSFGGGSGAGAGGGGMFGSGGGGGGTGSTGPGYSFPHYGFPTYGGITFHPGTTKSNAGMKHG
Procedure: (§1) NF-κB activity was measured in these cells using the TransBinding NF-κB assay kit and following the instructions of the manufacturer (Panomics). Briefly, nuclear extracts obtained as described above, were incubated for 30 min in an ELISA plate coated with NF-κB consensus DNA sequence to which p50 protein can bind. After binding, antibody against p50 was added and incubated for 1 hour, followed by HRP-conjugated antibody for 1 hour. Afterwards, luminol/enhancer solution and stable peroxide solution were added and chemoluminescence was detected using a luminometer (Bio-Rad).

annexin 1 = assay: Induction of annexin 1 in BxPC-3 cells, Western blot of nuclear and cytoplasmic extracts; assay type: cell-based, human; conditions: for annexin 1 expression with conventional NSAIDs: 6 h, each at 1 mM; for expression of annexin 1: 5 mM conventional ASA, 100 μM cortisone
Procedure: The human pancreatic cancer cell line, BxPC-3, or the colon cancer cell line HT-29, both from ATCC (Manassas, Va.) were maintained and grown in RPMI 1640 or McCoy's 5A medium (Cellgro) supplemented with 10% fetal bovine serum (HyClone) and 1% penicillin/streptomycin (Cellgro) in a humidified incubator at 37° C. and 5% CO2.
The cell fractions were obtained as described by Andrews and Faller (N. C. Andrews and D. V. Faller, Nucleic Acids Res. 19:2499 (1991)) with modification. Briefly, the cells were pelleted after treatment and washed three times with PBS. The cell pellets were resuspended in ice cold buffer A (10 mM HEPES, pH 7.9, 10 mM KCl, 1.5 mM MgCI2, 0.5 mM DTT, 0.5 mM PMSF) with protease inhibitor cocktail (Sigma) and incubated on ice for 15 min with occasional mixing by gently tapping the tube. The cell lysates were centrifuged up to 5000 rpm for three times. The supernatants were collected as cytoplasmic extracts. Nuclear pellets were washed with buffer A and resuspended in buffer C (20 mM HEPES, pH 7.9, 450 mM NaCl, 1.5 mM MgCI2, 0.2 mM EDTA, 0.5 mM DTT, 0.5 mM PMSF, 25% Glycerol) with protease inhibitor cocktail (Sigma) and incubated on ice for 30 min with occasional mixing to extract nuclear proteins. Nuclear extracts were cleared by centrifugation (14,800 rpm for 10 min) and the supernatants were collected as nuclear extracts.
For Western blotting, the proteins from both cytoplasmic extracts and nuclear extracts were separated by SDS-polyacrylamide gel electrophoresis and transferred onto PVDF membranes (Millipore). The membranes were blocked in 5% nonfat dry milk-TBS-T (20 mM Tris-HCl, pH 7.5, 500 mM NaCl. 0.3% Tween 20) at room temperature (RT) for an hour and probed with anti-annexin 1, c-IAP-1, c-IAP-2, and TRAF-1 (Santa Cruz Biotechnology, Inc. CA), and anti-Bcl-2 antibodies (Cell Signaling Technology), in 5% nonfat dry milk-TBS-T at 4° C. overnight. The blots were washed three times with TBS-T for 5 min each wash and incubated with horseradish peroxidase-conjugated secondary antibody (Santa Cruz) in 5% nonfat dry milk-TBS-T at RT for an hour. After five washes with TBS-T, the blots were developed with the enhanced chemiluminescence system (ECL™ Western Blotting System, Amersham Biosciences) and exposed to x-ray film according to the manufacturer's instructions. Protein loading was normalized using anti-β-actin antibodies (Santa Cruz Biotechnology, Inc).

[2] = cortisol=1; cited from earlier work
NF-κB [3] = molecular target: T1, NF-κB; assay: NF-κB activity ELISA, SW480 cells; assay type: cell-based; set-up: endogenous in cells; host or cells: SW480
Procedure: as §1, with “In the same manner as for NO-ASA, BxPC-3 cells were treated for 6 h with different corticosteroid inflammatory drugs, each at 4 μM, and tested for their ability to induce annexin 1. […] NF-κB activity” for “NF-κB activity”
BxPC-3 or SW480 cells were treated with 30 μM of each of the peptides of annexin 1 for 3 h. NF-κB activity and apoptosis were measured in whole cell lysates using an ELISA assay as described in EXAMPLES 2 and 4. […] These peptides are Ac-Gln-Ala-Trp, as set forth in SEQ ID NO:1, the peptide Ac-Phe-Gln-Ala-Tip, as set forth in SEQ ID NO:2 and the peptide Ac-Phe-Leu-Lys-Gln-Ala-Trp, as set forth in SEQ ID NO:3. Other depicted acetylated peptides are Ac-Phe-Leu-Lys (SEQ ID NO:14), Ac-Lys-Gln-Ala-Trp (SEQ ID NO:15), and Ac-Val-Ser-Glu-Lys-Gln-Ala-Trp (SEQ ID NO:16).

SW480 tumor xenografts = assay: SW480 human colon cancer xenograft in nude mice; assay type: in vivo, BALB/c nude mice; conditions: i.p. 40 μg once daily
Procedure: Female 6-week-old BALB/c nude mice were obtained from The Jackson Laboratory (Bar Harbor, Me.). The animals were housed in a climate- and light-controlled room. Food and water were allowed ad libitum. The SW480 human colon cancer cell line was used to establish xenografts in nude mice. 2×10^6 cells in 100 μl of PBS were injected subcutaneously (s.c.) into the upper portion of the left hind limb of the mice, where they grew as solid tumors. The size of the tumor was measured two times per week using a Venier caliper. The tumor volume was determined using the formula V=L×W(L+W/2)×0.56.
On the 7th day after inoculation, when the tumor size reached an average 240 mm^3, 18 mice were treated with QW-3 administered by i.p. injection of at a dose of 40 μg once daily. The control group (n=18) was administered the vehicle alone. The mice were sacrificed on day 12, and tumors were resected and stored in liquid nitrogen and formalin until further analysis.
Immunohistochemistry was performed on paraffin sections of the tumors. All sections were incubated at 95-100° C. in WCAP reagent (Surgipath) for 30 min, washed and then incubated in 10:1 Methanol:H2O2 for 10 min. Sections were then incubated in rabbit polyclonal PCNA (Santa Cruz, Calif.) or antibody detecting NF-κB activation (Chemicon) for 1 h after which immunoreactivity was detected with an Envision assay kit and DAB reagent (DakoCytomation). All sections were counterstained with haematoxylin and mounted. Negative controls included a non-specific antibody.

[4] = tested on: SW480 human colon cancer cells; assay: Apoptosis, Cell Death Detection ELISA, SW480 cells; assay type: cell-based
Procedure: Apoptosis was determined using the Cell Death Detection ELISA^PLUS assay kit according to the manufacturer's protocol (Roche, Indianapolis, Ind.). Briefly, the cells were treated with either NO-ASA or Dex for 3 h. Cells were harvested and washed three times with PBS. The cell pellet was resuspended with lysis buffer and incubated for 30 min at RT. Cell […] at 200×g for 10 min. The ELISA assay was performed using 20 μl cell lysate and 80 μl Immunoreagent (containing 72 μl Incubation Buffer, 4 μl Anti-histone-biotin Solution, and 4 μl Anti-DNA-POD Solution) per micro-plate well. The micro-plate was covered with an adhesive foil and incubated on a shaker under gentle shaking at 200 rpm for 2 h at RT. The solution in each well was removed thoroughly by tapping and the pellets were rinsed three times with 200 μl Incubation Buffer. […] The absorbance was measured at 405 nm using the SpectraMax micro-plate reader (Molecular Devices, Sunnyvale).
BxPC-3 or SW480 cells were treated with 30 μM of each of the peptides of annexin 1 for 3 h. NF-κB activity and apoptosis were measured in whole cell lysates using an ELISA assay as described in EXAMPLES 2 and 4. […]

Compound | NF-κB activity with peptides of annexin 1 (NF-κB [1]) | annexin 1 expression with conventional NSAIDs (annexin 1) | other results
Ac-Phe-Gln-Ala-Trp (Ac-FQAW) [Ac-Phe-Gln-Ala-Tip] | inhibited NF-κB activity | – | –
CC1=C(CC(=O)O)c2cc(F)ccc2/C1=C\c1ccc([S+](C)[O-])cc1 (stereo not drawn) [sulindac] | – | no effect | –
C[C@]12CCC(=O)C=C1CC[C@@H]1[C@@H]2C(=O)C[C@@]2(C)[C@H]1CC[C@]2(O)C(=O)CO [cortisone] | – | – | expression of annexin 1 (annexin 1): failed to induce
Ac-AMVSEFKQAWFIENEEQQYVQTVK [Ac2-26] | inhibited NF-κB activity | – | –
CC(C(=O)O)c1ccc(-c2ccccc2)c(F)c1 (stereo not drawn) [flurbiprofen] | – | no effect | –
C[C@]12C=CC(=O)C=C1CC[C@H]1[C@@H]3C[C@@H](O)[C@](O)(C(=O)CO)[C@@]3(C)C[C@H](O)[C@@]12F [triamincinolone] | – | – | relative anti-inflammatory potency [2]: 5
CC(=O)Oc1ccccc1C(=O)O [conventional ASA, aspirin] | – | no effect | expression of annexin 1 (annexin 1): failed to induce; activity of NF-κB with weak anti-inflammatory drugs (NF-κB [1]; cells and concentration not given): do not inhibit
CN1C(C(=O)Nc2ccccn2)=C(O)c2ccccc2S1(=O)=O [piroxicam] | – | no effect | –
C[C@]12CCC(=O)C=C1CC[C@@H]1[C@@H]2[C@@H](O)C[C@@]2(C)[C@H]1CC[C@]2(O)C(=O)CO [cortisol] | – | – | relative anti-inflammatory potency [2]: 1
CC(C)Cc1ccc(C(C)C(=O)O)cc1 (stereo not drawn) [ibuprofen] | – | no effect | –
Ac-Phe-Leu-Lys-Gln-Ala-Trp (Ac-FLKQAW) | inhibited NF-κB activity | – | –
Ac-Ala-Met-Val-Ser-Glu-Phe-Leu-Lys-Gln-Ala-Trp (Ac-AMVSEFLKQAW) [Ac2-12, commercial peptide of annexin 1] | inhibited NF-κB activity | – | –
Ac-Gln-Ala-Trp [QW-3] | inhibited NF-κB activity | – | NF-κB activity (NF-κB [3]): inhibited NF-κB activity in a concentration-dependent manner; blood levels of IL-6 (SW480 tumor xenografts): decreased levels of IL-6; blood levels of IL-10 (SW480 tumor xenografts): increased the blood levels of IL-10; tumor growth (SW480 tumor xenografts): suppressed tumor growth; NF-κB activity in tumors (SW480 tumor xenografts; tumor sections): inhibited NF-κB activity; cell proliferation by expression of PCNA (immunohistochemistry) (SW480 tumor xenografts; tumor sections): inhibited cell proliferation; apoptosis [4]: enhanced SW480 cell apoptosis
COc1ccc2c(c1)c(CC(=O)O)c(C)n2C(=O)c1ccc(Cl)cc1 [indomethacin] | – | no effect | –
O=C(O)c1ccccc1O [salicylic acid] | – | no effect | –
